These results are taken from patent US20250041302A1, “PROLYL HYDROXYLASE DOMAIN INHIBITOR FOR TREATING HEMORRHAGIC OR BURN SHOCK” (THE GOVERNMENT OF THE UNITED STATES, AS REPRESENTED BY THE …, priority 2022, published 2025).

Test [1] concerns rats with polytrauma and hemorrhagic shock. Kind of test: Oral PHDi prior to polytrauma/hemorrhage, pilot study (FIG. 3). It is filed as in vivo, Sprague-Dawley rats. As for the experimental part:
FIG. 3. The effect of PHDi prior to polytrauma/hemorrhage on lactate level. PHDi (MK-8617, 1 mg/kg) or vehicle was orally applied in rats prior to trauma (n=3-4/group). The lactate in whole blood samples were collected at baseline (BSL), shed hemorrhage blood (HEM), 2- and 4 hours after trauma and measured by iSTAT. […] Values represent as means±SEM.
PHDi (MK-8617, 500 microgram per rat) was orally applied prior to trauma, and the lactate (measured by iSTAT) was measured at baseline, 2 and 4 hours after trauma.
Model-1, acute sub-lethal hemorrhagic shock with polytrauma (40% hemorrhage, fast speed hemorrhage at >1 ml/min, target MAP at 35-40 mmHg for 30 min): This model has intensive tissue damage and transient compensated hemorrhagic shock, and the animals survived for 4 hours after trauma without resuscitation or any intervention. The death occurs after 4 hours after trauma.
Briefly, Sprague-Dawley rats (350-450 gram) were anesthetized with isoflurane/100% oxygen through a nosecone and allowed to breathe spontaneously. Cannulas were placed in the left femoral artery and vein for measurement of arterial blood pressure and to obtain vascular access (blood draw and resuscitation and drug administration) respectively. Polytrauma was induced by laparotomy, crush injury to the small intestines, the left and medial liver lobes, and the right leg skeletal muscle and by fracture of the right femur. In detail, a midline incision was made through the abdominal skin and underlying muscle layers. A 10-cm section of small intestines was isolated just anterior to the cecum and run gently through a clamp covered with silastic tubing with a 2-mm distance between the clamps to cause a gentle crush injury. The right and medial lobes of the liver will receive three crushes to each lobe using the same clamp. The intestines and liver were replaced, and the abdominal incision was closed with sutures in two layers. To fracture the […], a modification of a 3-point impact device was used by dropping six stainless-steel balls (65 g each) stacked together, from 36 inches through a guide tube (1 inch internal diameter) to impact on a rounded aluminum blade resting on the mid-right femur with the right leg resting on two aluminum stands, one under the hip and one under the knee. A large hemostat (5 in tongs) was used to clamp the muscle of the right leg 10 times. The crush injury was intended to cause microvascular damage, as opposed to cutting, chopping, or mincing of the tissue, which would have led to uncontrolled hemorrhage. The polytrauma was performed about 10 min followed immediately by hemorrhage. […]
The lactate in whole blood samples were collected at baseline (BSL), shed hemorrhage blood (HEM), 2- and 4 hours after trauma, and the lactate was measured by iSTAT. […]

Test [2] relates to rats with lethal hemorrhagic shock. Put plainly: Intravenous PHDi in lethal hemorrhagic shock, fixed-volume hemorrhage 65% EBV, FWB at 60 min (FIG. 7-10). It is filed as in vivo, Sprague-Dawley rats. How it is done: For the experiments in this disclosure, fixed-volume hemorrhage (65% estimated blood volume (EBV)) was performed in isoflurane anesthetized Sprague-Dawley rats. In this model, the initial 40% of total volume of hemorrhage was performed by continuous blood draw using syringe pump within first 2 min, followed by manually repeatedly drawing 1.5 ml of whole blood every 2 min at 10 min, and 1 ml of whole blood every 3 min thereafter until achieving the targeted volume of hemorrhage, and thus 40% bleeding occurs within the first 2 minutes (fast hemorrhage), another 40% between 2-10 minutes, and the rest 20% between 10-22 minutes (slow hemorrhage).
Then, the animals were treated with 500 u L PHDi (MK-8617 at 1 mg/ml, in a dissolvent composed of 5% DMSO, 10% PEG 400, and 85% normal saline, average dose at 1.24±0.07 mg/kg) or vehicle (n=13 each) intravenously at 20 min after hemorrhage. At 60 min after hemorrhage, surviving animals were resuscitated with fresh whole blood (FWB, 20% EBV) using shed blood collected at 2 min after hemorrhage. The 60 min- or 4 hour survivability was analyzed
For the measurement of metabolites (lactate and HCO3) and ATP, blood samples were harvested at time point 0 (baseline), 20 minutes (prior to PHDi), 60 minutes (prior to fresh whole blood (FWB)), and 240 minutes after polytrauma/hemorrhage.

Entries after “also recorded” stand apart in the source; their conditions may differ.

For `COc1ccc(C(NC(=O)c2cnc(-c3cccnn3)nc2O)c2ccc(OC)cc2)cc1` [MK-8617, N-[Bis(4-methoxyphenyl)methyl]-4-hydroxy-2-(pyridazin-3-yl)pyrimidine-5-carboxamide], the “average levels of lactate attenuated as compared with vehicle” value in test [1] (2 and 4 hr after trauma, oral prior to trauma) is “about 30%”. In addition, in test [1] (4 hours after trauma), the survival result is listed as “all animals survived after 4 hours”. Besides, in test [1] (4 hours after trauma, MK-8617 1 mg/kg orally prior to trauma, n=4), the “lactate in whole blood (iSTAT)” value was determined as 2.365 ± 0.733 mmol/L. The “rise of lactate” value in test [1] (oral MK-8617 1 mg/kg prior to trauma, 1 mg/kg) is reported as “attenuated the rise of lactate; also recorded: mitigating the elevation of lactate; also recorded: attenuates lactate levels”. The compound also gave an MAP in test [2] (10 min after treatment, i.v. 1.24±0.07 mg/kg at 20 min after hemorrhage, vehicle 31.3±1.1, p=0.02) of 35.9±1.2 mmHg. Moreover, the “MAP after whole blood resuscitation (FWB)” value in test [2] (PHDi treated animals, FWB at 60 min) is reported as “partial restoration of MAP”. Also, the time to death result in test [2] (acute administration) is listed as “extends the time to death”. Besides, the “reduction in the elevation of lactate as compared with vehicle” value in test [2] (at 60 min) is recorded as “about 30%”. Also, the “lactate after whole blood resuscitation” value in test [2] (at 4 hr after transfusion) is reported as “reduced lactate”. In test [2] (n=13, vehicle 15%, p=0.03), the 60 min survivability is 62%. Besides, the “prothrombin time (PT)” value in test [2] (surviving animals at 60 min and 4 hours followed by whole blood resuscitation) is recorded as “significantly elevated”. Also, the “animals surviving for 4 hours after hemorrhage among those that received whole blood resuscitation” value in test [2] (vehicle 1 of 2, p=0.036) was 6 of 8.
